Structures can show the parent of a compound that is named as a salt.
Test system: RKO p27 uninduced (proliferating)
Assay: Alamar Blue cell viability assay, anti-proliferative / cytotoxic activity on proliferating RKO cells
Type: cell-based, human
Details: Homo sapiens, RKOp27, 72 h, read-out: -log EC50 [mol/l] RKO p27 uninduced (proliferating) (converted)
Method: The anti-proliferative / cytotoxic activity of the compounds described herein can be tested on subclones of RKO human colon adenocarcinoma cells (Schmidt et al., Oncogene 19, 2423-2429; 2000) using the Alamar Blue cell viability assay (described in O'Brien et al. Eur J Biochem 267, 5421-5426, 2000). The compounds are dissolved as 10 mM solutions in DMSO and subsequently diluted in semi-logarithmic steps. DMSO dilutions are further diluted 1:100 v:v into Dulbecco's modified Eagle's medium (DMEM) containing 10% fetal calf serum to a final concentration twice as much as the final concentration in the test. RKO subclones are seeded into 96 well flat bottom plates at a density of 4000 cells per well in a volume of 50 µl per well. 24 hours after seeding the 50 µl each of the compound dilutions in DMEM medium are added into each well of the 96 well plate. Each compound dilution is tested as triplicates. Wells containing untreated control cells are filled with 50 µl DMEM medium containing 1% DMSO. The cells are then incubated with the substances for 72 hours at 37°C in a humidified atmosphere containing 5% carbon dioxide. To determine the viability of the cells, 10 µl of an Alamar Blue solution (Biosource) are added and the fluorescence is measured at an extinction of 544 nm and an emission of 590 nm. For the calculation of the cell viability the emission value from untreated cells is set as 100% viability and the emission rates of treated cells are set in relation to the values of untreated cells. Viabilities are expressed as % values. The Graphpad Prism program is used for the calculation of EC50 values for anti-proliferative / cytotoxic activity out of the obtained dose-response curves. […]

| SMILES | EC50 [µM] |
| --- | --- |
| Cc1nn2c(=O)n(Cc3ccccc3)c(C(C(C)C)N(CCCN)C(=O)c3ccc(Cl)c(Cl)c3)nc2c1Cl (racemic) [Example 11, N-(3-Amino-n-propyl)-N-[(RS)-1-(3-benzyl-8-chloro-7-methyl-4-oxo-3,4-dihydro-pyrazolo[1,5-a][1,3,5]triazin-2-yl)-2-methyl-n-propyl]-3,4-dichloro-benzamide hydrocloride] | 0.1 to 1 |
| Cc1ccc(C(=O)N(CCCCN)C(c2nc3c(Cl)c(C)nn3c(=O)n2Cc2ccccc2)C(C)C)cc1 (racemic) [Example 16, N-(4-Amino-n-butyl)-N-[(RS)-1-(3-benzyl-8-chloro-7-methyl-4-oxo-3,4-dihydro-pyrazolo[1,5-a][1,3,5]triazin-2-yl)-2-methyl-n-propyl]-4-methyl-benzamide hydrocloride] | 0.1 to 1 |

Same assay, conditions: Homo sapiens, RKOp27; RKO colon cancer cells, without Ponasterone A, 72 hours incubation, Alamar Blue; read-out: -log EC50 [mol/l] RKO p27 uninduced (proliferating) (converted)

| SMILES | EC50 [µM] |
| --- | --- |
| Cc1ccc(C(=O)N(CCCN)C(c2nc3c(Cl)c(C)nn3c(=O)n2Cc2ccccc2)C(C)C)cc1 (racemic) [Example 1, N-(3-Amino-n-propyl)-N-[(RS)-1-(3-benzyl-8-chloro-7-methyl-4-oxo-3,4-dihydro-pyrazolo[1,5-a][1,3,5]triazin-2-yl)-2-methyl-n-propyl]-4-methyl-benzamide hydrochloride] | ≤ 0.1 |
| Cc1ccc(C(=O)N(CCN)C(c2nc3c(Cl)c(C)nn3c(=O)n2Cc2ccccc2)C(C)C)cc1 (racemic) [Example 2, N-(2-Amino-ethyl)-N-[(RS)-1-(3-benzyl-8-chloro-7-methyl-4-oxo-3,4-dihydro-pyrazolo[1,5-a][1,3,5]triazin-2-yl)-2-methyl-n-propyl]-4-methyl-benzamide hydrochloride] | ≤ 0.1 |
| Cc1ccc(C(=O)N(CCCN)C(c2nc3c(Cl)cnn3c(=O)n2Cc2ccccc2)C(C)C)cc1 (racemic) [Example 4, N-(3-Amino-n-propyl)-N-[(RS)-1-(3-benzyl-8-chloro-4-oxo-3,4-dihydro-pyrazolo[1,5-a][1,3,5]triazin-2-yl)-2-methyl-n-propyl]-4-methyl-benzamide hydrochloride] | ≤ 0.1 |
| Cc1nn2c(=O)n(Cc3ccccc3)c(C(C(C)C)N(CCCN)C(=O)c3ccc(Cl)cc3)nc2c1Cl (racemic) [Example 5, N-(3-Amino-n-propyl)-N-[(RS)-1-(3-benzyl-8-chloro-7-methyl-4-oxo-3,4-dihydro-pyrazolo[1,5-a][1,3,5]triazin-2-yl)-2-methyl-n-propyl]-4-chloro-benzamide hydrochloride] | ≤ 0.1 |
| Cc1nn2c(=O)n(Cc3ccccc3)c(C(C(C)C)N(CCCN)C(=O)c3ccc(F)cc3)nc2c1Cl (racemic) [Example 6, N-(3-Amino-n-propyl)-N-[(RS)-1-(3-benzyl-8-chloro-7-methyl-4-oxo-3,4-dihydro-pyrazolo[1,5-a][1,3,5]triazin-2-yl)-2-methyl-n-propyl]-4-fluoro-benzamide hydrochloride] | 0.1 to 1 |
| Cc1cccc(C(=O)N(CCCN)C(c2nc3c(Cl)c(C)nn3c(=O)n2Cc2ccccc2)C(C)C)c1 (racemic) [Example 7, N-(3-Amino-n-propyl)-N-[(RS)-1-(3-benzyl-8-chloro-7-methyl-4-oxo-3,4-dihydro-pyrazolo[1,5-a][1,3,5]triazin-2-yl)-2-methyl-n-propyl]-3-methyl-benzamide hydrochloride] | ≤ 0.1 |
| Cc1nn2c(=O)n(Cc3ccccc3)c(C(C(C)C)N(CCCN)C(=O)c3ccc(Br)cc3)nc2c1Cl (racemic) [Example 8, N-(3-Amino-n-propyl)-N-[(RS)-1-(3-benzyl-8-chloro-7-methyl-4-oxo-3,4-dihydro-pyrazolo[1,5-a][1,3,5]triazin-2-yl)-2-methyl-n-propyl]-4-bromo-benzamide hydrochloride] | ≤ 0.1 |
| Cc1ccc(C(=O)N(CCCN)C(c2nc3cc(OC(F)F)nn3c(=O)n2Cc2ccccc2)C(C)C)cc1 (racemic) [Example 10, N-(3-Amino-n-propyl)-N-{(RS)-1-[3-benzyl-7-(1,1-difluoro-methoxy)-4-oxo-3,4-dihydro-pyrazolo[1,5-a] [1,3,5]triazin-2-yl]-2-methyl-n-propyl}-4-methyl-benzamide hydrochloride] | ≤ 0.1 |
| Cc1nn2c(=O)n(Cc3ccccc3)c(C(C(C)C)N(CCCN)C(=O)c3cccc(Cl)c3Cl)nc2c1Cl (racemic) [Example 14, N-(3-Amino-n-propyl)-N-[(RS)-1-(3-benzyl-8-chloro-7-methyl-4-oxo-3,4-dihydro-pyrazolo[1,5-a][1,3,5]triazin-2-yl)-2-methyl-n-propyl]-2,3-dichloro-benzamide hydrochloride] | 0.1 to 1 |
| COc1ccc(C(=O)N(CCCN)C(c2nc3c(Cl)c(C)nn3c(=O)n2Cc2ccccc2)C(C)C)cc1 (racemic) [Example 15, N-(3-Amino-n-propyl)-N-[(RS)-1-(3-benzyl-8-chloro-7-methyl-4-oxo-3,4-dihydro-pyrazolo[1,5-a][1,3,5]triazin-2-yl)-2-methyl-n-propyl]-4-methoxy-benzamide hydrochloride] | ≤ 0.1 |
| Cc1ccc(C(=O)N(CCCN)C(c2nc3c(Cl)c(OC(F)F)nn3c(=O)n2Cc2ccccc2)C(C)C)cc1 (racemic) [Example 17, N-(3-Amino-n-propyl)-N-{(RS)-1-[3-benzyl-8-chloro-7-(1,1-difluoro-methoxy)-4-oxo-3,4-dihydro-pyrazolo[1,5-a] [1,3,5]triazin-2-yl]-2-methyl-n-propyl}-4-methyl-benzamide hydrochloride] | ≤ 0.1 |
| COc1cc2nc(C(C(C)C)N(CCCN)C(=O)c3ccc(C)cc3)n(Cc3ccccc3)c(=O)n2n1 (racemic) [Example 20, N-(3-Amino-n-propyl)-N-[(RS)-1-(3-benzyl-7-methoxy-4-oxo-3,4-dihydro-pyrazolo[1,5-a][1,3,5]triazin-2-yl)-2-methyl-n-propyl]-4-methyl-benzamide hydrochlorid] | ≤ 0.1 |
| COc1nn2c(=O)n(Cc3ccccc3)c(C(C(C)C)N(CCCN)C(=O)c3ccc(C)cc3)nc2c1Cl (racemic) [Example 21, N-(3-Amino-n-propyl)-N-[(RS)-1-(3-benzyl-8-chloro-7-methoxy-4-oxo-3,4-dihydro-pyrazolo[1,5-a][1,3,5]triazin-2-yl)-2-methyl-n-propyl]-4-methyl-benzamide hydrochloride] | ≤ 0.1 |

Same assay, conditions: RKO colon cancer cells, without Ponasterone A, 72 hours incubation, Alamar Blue

| SMILES | -log EC50 [mol/l] RKO p27 uninduced (proliferating) |
| --- | --- |
| Cc1ccc(C(=O)N(CCCN)C(c2nc3c(Cl)c(C)nn3c(=O)n2Cc2ccccc2)C(C)C)cc1 (racemic) [Example 1a, N-(3-Amino-n-propyl)-N-[(RS)-1-(3-benzyl-8-chloro-7-methyl-4-oxo-3,4-dihydro-pyrazolo[1,5-a][1,3,5]triazin-2-yl)-2-methyl-n-propyl]-4-methyl-benzamide] | -log EC50 [mol/l] RKO p27 uninduced (proliferating) >= 7.0 |
| Cc1nn2c(=O)n(Cc3ccccc3)c(C(C(C)C)N(CCCN)C(=O)c3ccc(C(F)(F)F)cc3)nc2c1Cl.Cl (racemic) [Example 9, N-(3-Amino-n-propyl)-N-[(RS)-1-(3-benzyl-8-chloro-7-methyl-4-oxo-3,4-dihydro-pyrazolo[1,5-a][1,3,5]triazin-2-yl)-2-methyl-n-propyl]-trifluoromethyl-benzamide hydrochloride] | -log EC50 [mol/l] RKO p27 uninduced (proliferating) >= 7.0 |
| Cc1ccc(C(=O)N(CCCN)C(c2nc3c(Cl)c(C)nn3c(=O)n2Cc2ccccc2)C(C)C)c(F)c1.Cl (racemic) [Example 12, N-(3-Amino-n-propyl)-N-[(RS)-1-(3-benzyl-8-chloro-7-methyl-4-oxo-3,4-dihydro-pyrazolo[1,5-a][1,3,5]triazin-2-yl)-2-methyl-n-propyl]-2-fluoro-4-methyl-benzamide hydrocloride] | -log EC50 [mol/l] RKO p27 uninduced (proliferating) >= 7.0 |
| Cc1ccc(C(=O)N(CCCN)C(c2nc3c(Cl)c(C)nn3c(=O)n2Cc2ccccc2)C(C)C)cc1F.Cl (racemic) [Example 13, N-(3-Amino-n-propyl)-N-[(RS)-1-(3-benzyl-8-chloro-7-methyl-4-oxo-3,4-dihydro-pyrazolo[1,5-a][1,3,5]triazin-2-yl)-2-methyl-n-propyl]-3-fluoro-4-methyl-benzamide hydrocloride] | -log EC50 [mol/l] RKO p27 uninduced (proliferating) >= 7.0 |
| Cc1ccc(C(=O)N(CCCN(C)C)C(c2nc3c(Cl)c(C)nn3c(=O)n2Cc2ccccc2)C(C)C)cc1 (racemic) [Example 19, N-[(RS)-(3-Benzyl-8-chloro-7-methyl-4-oxo-3,4-dihydro-pyrazolo[1,5-a][1,3,5]triazin-2-yl)-methyl-n-propyl]-N-(3-dimethylamino-n-propyl)-4-methyl-benzamide] | -log EC50 [mol/l] RKO p27 uninduced (proliferating) >= 7.0 |

— patent publication EP2070932A1, “Pyrazolotriazines” (4SC AG, priority 2007, dated 2009)
